Experimental data reported in paper PMC6687188, “Novel lactate dehydrogenase inhibitors with in vivo efficacy against Cryptosporidium parvum” (PLoS Pathogens, 2019).
Residues, ends and D or L forms follow the SMILES beside them. *: point of attachment. Cbz = O=C(OCc1ccccc1)*; CH2Cl = ClC*

What follows are compounds tested against recombinant CpLDH protein (Cryptosporidium parvum, UniProt Q9GT92, F198L/K295E/R251K).

Compared with `CC(=O)O[C@H]1C[C@H](O[C@H]2[C@@H](O)C[C@H](O[C@H]3[C@@H](O)C[C@H](O[C@H]4CC[C@@]5(C)[C@H](CC[C@@H]6[C@@H]5CC[C@]5(C)[C@@H](C7=CC(=O)OC7)CC[C@]65O)C4)O[C@@H]3C)O[C@@H]2C)O[C@H](C)[C@H]1O[C@@H]1O[C@H](CO)[C@@H](O)[C@H](O)[C@H]1O` [NSC7532], `CC[C@@]1(O)C[C@H](O[C@H]2C[C@H](N(C)C)[C@H](O[C@H]3C[C@@H]4O[C@H]5CC(=O)[C@H](C)O[C@H]5O[C@@H]4[C@H](C)O3)[C@H](C)O2)c2c(cc3c(c2O)C(=O)c2c(O)ccc(O)c2C3=O)[C@H]1C(=O)OC` [NSC243023] is higher in “MEAN CpLDH INHIBITION (%)” value: -151.91% for the first, -140.35% for the second.

Going from `Cc1c2cnccc2c(C)c2c1c1ccccc1n2CCOC(=O)c1ccccc1` [NSC163443] to `CC1=C(C(=O)NCc2ccccc2)C(c2ccccc2O)C(C(=O)NCc2ccccc2)=C(C)N1` [NSC634928], the “MEAN CpLDH INHIBITION (%)” value falls from -14.23% to -21.25%.

Going from `CN(C)c1cccc(F)c1C(=O)NC(=O)Nc1ccc(Cl)cc1` [NSC603108] to `COc1ccc2nc(NC(=O)C(=O)CC(=O)c3ccc(Cl)cc3)sc2c1` [NSC623059], the “MEAN CpLDH INHIBITION (%)” value falls from -29.93% to -31.35%.

Going from `O=C1C(CN2CCCCC2)CCCC1CN1CCCCC1` (stereo not shown) [NSC39202] to `CCCCCCC1CC(=O)C1(Cl)Cl` (stereo not shown) [NSC666526], the “MEAN CpLDH INHIBITION (%)” value rises from -37.56% to -2.48%.

Compared with `COc1ccc(/C=C2\Cc3ccccc3C2=O)cc1OC` [NSC643174], `CN(C)c1ccc(/C=C2\Cc3ccccc3C2=O)cc1Br` [NSC643163] is lower in “MEAN CpLDH INHIBITION (%)” value: -15.39% for the first, -30.02% for the second.

Going from `OCC1OC(n2cnc3c(=S)nc[nH]c32)C(O)C1O` (stereo not shown) [NSC406021] to `COc1ccccc1Cc1nc(-c2ccccc2)nn(C2OC(COC(C)=O)C(OC(C)=O)C(OC(C)=O)C2OC(C)=O)c1=S` (stereo not shown) [NSC625873], the “MEAN CpLDH INHIBITION (%)” value falls from -17.89% to -25.33%.

Compared with `C[n+]1ccc(-c2cc[n+](C)cc2)cc1.[Cl-].[Cl-]` [NSC263500], `CCN(CC)CCCC(C)Nc1ccnc(/C=C/c2ccc(Cl)cc2)c1` (stereo not shown) [NSC157389] is higher in “MEAN CpLDH INHIBITION (%)” value: -58.44% for the first, -3.33% for the second.

First: O=NN(CCCl)C(=O)NCc1ccc[n+]([O-])c1 [NSC307454]
Second: O=C1C=CC(CC(=O)c2ccc3ccccc3c2)O1 (stereo not shown) [NSC634650]
The “MEAN CpLDH INHIBITION (%)” value of the first is lower: -54.21% for the first, -31.23% for the second.

Compared with `N#CC(C#N)=Cc1ccc(Oc2ccccc2)cc1` [NSC643028], `N#CCCN(CCC#N)c1ccc(C=Nc2ccc(F)cc2)cc1` [NSC620277] is higher in “MEAN CpLDH INHIBITION (%)” value: -52.45% for the first, -46.45% for the second.

First: C[C@H](CN(C)C)C(=O)c1ccccc1C(=O)O [NSC22992]
Second: O=C1C(=O)c2ccccc2C(O)=C1CC=C(Cl)Cl [NSC126771]
The “MEAN CpLDH INHIBITION (%)” value of the first is higher: -3.61% for the first, -15.17% for the second.

Going from `OC(CBr)C(O)C(O)C(O)CBr` (stereo not shown) [NSC616232] to `CC(C)CCCC(=O)CCCCCCC(=O)CCN(O)C(=O)C(N)CO.O=S(=O)(O)O` (stereo not shown) [NSC106997], the “MEAN CpLDH INHIBITION (%)” value rises from -42.37% to -28.98%.

Going from `CCOC(=O)Cc1cc(=O)oc2cc(O)ccc12` [NSC667235] to `CC(=O)OCc1cc(=O)n(C)c2c3c4c(cc12)c(C)cc(=O)n4CO3` [NSC157004], the “MEAN CpLDH INHIBITION (%)” value rises from -25.51% to -1.50%.

Compared with `O=c1ccc2ccc(CBr)cc2o1` [NSC99027], `O=C1/C(=C\c2cccs2)Oc2ccccc21` [NSC56544] is higher in “MEAN CpLDH INHIBITION (%)” value: -71.89% for the first, -23.78% for the second.

Going from `CC[C@](C)(O)C(=O)O[C@H]1C(=O)O[C@@H]2C[C@H]3C(C)=CC(=O)[C@@H](O)[C@]3(C)[C@H]3[C@@]4(O)OC[C@]32[C@@H]1[C@@H](C)[C@H]4O` [NSC132791] to `COC(=O)[C@@H]1c2cc3c(c(O)c2[C@@H](OC)C[C@@]1(C)O)C(=O)c1c(O)cc2c(c1C3=O)O[C@H]1O[C@@]2(C)[C@H](O)[C@@H](N(C)C)[C@@H]1O` [NSC102815], the “MEAN CpLDH INHIBITION (%)” value rises from -161.16% to -3.42%.

First: CC(C)CC(NC(=O)OCc1ccccc1)C(=O)NC(Cc1ccccc1)C(=O)CCl (stereo not drawn) [NSC173904] (Cbz-Leu-Phe-CH2Cl; configuration not given here)
Second: O=C1C=C(Nc2ccccc2C(=O)CC(=O)C(=O)Nc2ccc(Cl)c(Cl)c2)c2ccccc2C1=O [NSC641250]
The “MEAN CpLDH INHIBITION (%)” value of the first is lower: -56.33% for the first, -16.86% for the second.

Going from `CN1c2c(nc(N)[nH]c2=O)NCC1CCNc1ccc(C(=O)N[C@@H](CCC(=O)[O-])C(=O)[O-])cc1.[Na+].[Na+]` (stereo partly shown) [NSC139490] to `O=C1c2ccccc2C(=O)c2c(NCCNCCO)ccc(O)c21` [NSC299187], the “MEAN CpLDH INHIBITION (%)” value falls from -2.06% to -23.00%.

Compared with `CCCCCCCCCc1c(Cl)nc(Cl)nc1Cl` [NSC92510], `CCCc1c(Cl)nc(Cl)nc1Cl` [NSC66914] is lower in “MEAN CpLDH INHIBITION (%)” value: -23.70% for the first, -32.10% for the second.

Going from `COc1cc2c(c(O)c1OC)-c1c(cc(OC)c(OC)c1OC)C[C@@H](C)[C@@H](C)C2` [NSC330515] to `COc1ccc(OC)c2nc3c(C(=O)NCCN(C)C)cccc3nc12.Cl` [NSC678917], the “MEAN CpLDH INHIBITION (%)” value rises from -43.86% to -41.85%.

First: CCC[CH2][Sn]1([CH2]CCC)[S]CC[N]1S(=O)(=O)c1ccc(C)cc1 [NSC183359]
Second: CCCC[S+]([O-])CC(CO)NC(=O)/C=C/c1c(C)[nH]c(=O)[nH]c1=O (stereo not shown) [NSC241509]
The “MEAN CpLDH INHIBITION (%)” value of the first is higher: -29.84% for the first, -30.83% for the second.

Going from `COC(=O)C1(C)CCCC2(C)c3cc(OC)ccc3C(=O)C(Br)C12` (stereo not shown) [NSC169600] to `Cc1cc(NC(=O)NC(=O)c2ccccc2NC(=O)CN)ccc1Oc1ncc(Br)cn1.Cl` [NSC654259], the “MEAN CpLDH INHIBITION (%)” value falls from -28.27% to -46.44%.

Going from `Cc1cc(O)c(/C=N/C(N)=S)c(=O)o1` [NSC657449] to `O=C(N=Nc1c(O)[nH]c2c(Cl)cc(Cl)cc12)c1ccccc1O` [NSC320864], the “MEAN CpLDH INHIBITION (%)” value falls from -13.90% to -26.08%.

Going from `C[n+]1cc2cc(O)c(O)cc2c2ccc3cc(O)c(O)cc3c21.Cl.[Cl-].c1ccncc1` [NSC184403] to `c1ccc2c(c1)nnn1c3cnccc3nc21` [NSC128734], the “MEAN CpLDH INHIBITION (%)” value falls from -44.28% to -52.88%.

Compared with `Cl.Nc1nc(N)c2ncn(-c3ccccc3)c2n1` [NSC29603], `S=C(Nc1ccccc1)N(/N=C/C=C/c1ccccc1)c1nnc(-c2ccccc2)c(-c2ccccc2)n1` [NSC640637] is higher in “MEAN CpLDH INHIBITION (%)” value: -54.90% for the first, -17.02% for the second.

Compared with `NC(=O)c1c([N+](=O)[O-])cc(C(F)(F)F)cc1[N+](=O)[O-]` [NSC622640], `O=C1/C(=C/c2ccc([N+](=O)[O-])cc2)Sc2scc(-c3cccc([N+](=O)[O-])c3)[n+]21.[Cl-]` [NSC657598] is lower in “MEAN CpLDH INHIBITION (%)” value: -12.99% for the first, -68.44% for the second.

With `CCCCCCCCCCCCCCCCCCOP(=O)([O-])OCC[N+](C)(C)C` [NSC282880] the “MEAN CpLDH INHIBITION (%)” value was -0.05%.
